Like-named read-outs stand apart in the source and are kept apart here. Blank lines part the entries; values can stand above or below the molecule they belong to.
How the values were obtained:
[1] = Animal biodistribution of 99mTc complexes in guinea pigs; assay type: in vivo, guinea pig;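 further: Heart, liver and kidney plus urine values are percent of the injected material, background-corrected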
Procedure: (§1) Percentage biodistribution of injected material was calculated (after correction for background) for all organs using the formula: [formula]
(§2) Since only samples of muscle and blood were taken, the percentage in these tissues was calculated assuming blood and muscle to represent 5.8 and 43% of total animal weight respectively using the formula: [formula]
Since only samples of muscle and blood were taken, the percentage in these tissues was calculated assuming blood and muscle to represent 5.8 and 43% of total animal weight respectively using the formula: [formula] where CF= 0.058 for blood

[2] = rat, in vivo
Procedure: In vivo biodistribution: 0.1 ml Tc^99m prep was injected i.v. into a laterial tail vein of 6 anaesthetised rats.
At 2 minutes and 60 minutes post-injection, 3 rats were sacrificed by decapitation, bled from the neck and dissected. The following organs were removed at dissection: kidney; bladder(+ urine), lung, liver, spleen, stomach, small intestine, large intestine, brain (weighed), heart (weighed), thyroid and samples of blood (weighed) and muscle (weighed), the residual carcass and the tail (injection site). Subsequently samples were counted in an automatic twin crystal gamma counter.
as §1, §2

[3] = Table VIII, [TcL3 ]^+ complex of the ligand, guinea pigs, 2 min p.i.
[4] = Table VIII, [TcL3 ]^+ complex of the ligand, guinea pigs, 60 min p.i.
[5] = from Table VIII, [TcL3 ]^+, guinea pigs, 60'
[6] = guinea pig, 60 min p.i. in vivo, mean
[7] = guinea pig, 2 min p.i. in vivo, mean

Structure (SMILES): COCP(C)CCP(C)COC (stereo not shown) [Example 1, MeP(CH2 OMe)-(CH2)2 -(Me)P(CH2 OMe)]
Heart [1, 3]: 0.98 % injected dose | Heart/Blood Counts/Gram ratio [1, 3]: 1.63 | Heart/Liver Counts/Gram ratio [1, 3]: 0.82 | Heart/Muscle Counts/Gram ratio [1, 3]: 8.18 | Liver [1, 3]: 24.0 % injected dose | Heart [1, 4]: 0.83 % injected dose | Heart/Blood Counts/Gram ratio [1, 4]: 10.5 | Heart/Liver Counts/Gram ratio [1, 4]: 0.72 | Heart/Muscle Counts/Gram ratio [1, 4]: 4.29 | Liver [1, 4]: 13.3 % injected dose | heart uptake and retention compared with dmpe complex ([1]; from Table VIII, [TcL3 ]^+, guinea pigs, 2' and 60'): increased heart uptake and retention at 2' and 60' | heart/blood ratio compared with dmpe complex [1, 5]: better | heart/liver ratio compared with dmpe complex [1, 5]: better | heart/muscle ratio compared with dmpe complex [1, 5]: better | liver retention compared with dmpe complex [1, 5]: much lower liver retention at 60' | heart uptake and retention compared with dmpe complex [2]: significantly higher heart uptake and retention at 2' and 60' | heart/liver ratio compared with dmpe complex [2]: significantly increased heart/liver ratio at 60' | liver retention compared with dmpe complex [2]: reduced liver retention at 60' | Heart ([2]; 2 min): 1.71 % injected dose | Heart/Blood Counts/Gram ratio ([2]; 2 min): 4.19 | Heart/Liver Counts/Gram ratio ([2]; 2 min): 1.81 | Heart/Muscle Counts/Gram ratio ([2]; 2 min): 6.61 | Liver ([2]; 2 min): 12.6 % injected dose | Heart ([2]; 60 min): 1.42 % injected dose | Heart/Blood Counts/Gram ratio ([2]; 60 min): 25.7 | Heart/Liver Counts/Gram ratio ([2]; 60 min): 10.8 | Heart/Muscle Counts/Gram ratio ([2]; 60 min): 5.46 | Liver ([2]; 60 min): 1.53 % injected dose

Structure (SMILES): COCP(C)CCP(C)C (stereo not shown) [Example 2, Me2 P-(CH2)2 -P(Me) (CH2 OMe)]
Heart [1, 3]: 0.96 % injected dose | Heart/Blood Counts/Gram ratio [1, 3]: 1.59 | Heart/Liver Counts/Gram ratio [1, 3]: 0.51 | Heart/Muscle Counts/Gram ratio [1, 3]: 9.19 | Liver [1, 3]: 24.85 % injected dose | Heart [1, 4]: 0.43 % injected dose | Heart/Blood Counts/Gram ratio [1, 4]: 7.82 | Heart/Liver Counts/Gram ratio [1, 4]: 0.30 | Heart/Muscle Counts/Gram ratio [1, 4]: 4.60 | Liver [1, 4]: 26.13 % injected dose | general trend of biodistribution compared with dmpe complexes [2]: show the same general trend | Heart ([2]; 2 min): 0.96 % injected dose | Heart/Blood Counts/Gram ratio ([2]; 2 min): 9.05 | Heart/Liver Counts/Gram ratio ([2]; 2 min): 0.57 | Heart/Muscle Counts/Gram ratio ([2]; 2 min): 4.99 | Liver ([2]; 2 min): 20.45 % injected dose | Heart ([2]; 60 min): 0.94 % injected dose | Heart/Blood Counts/Gram ratio ([2]; 60 min): 49.63 | Heart/Liver Counts/Gram ratio ([2]; 60 min): 7.26 | Heart/Muscle Counts/Gram ratio ([2]; 60 min): 4.17 | Liver ([2]; 60 min): 1.62 % injected dose

Structure (SMILES): COC(CC(OC)P(C)C)P(C)C.COC(CC(OC)P(C)C)P(C)C.COC(CC(OC)P(C)C)P(C)C.[99Tc+] (stereo not shown) [Example 16]
Blood [1, 6]: 2.03 % injected dose/organ | Heart [1, 6]: 0.57 % injected dose/organ | Heart/Blood Counts/Gram ratio [1, 6]: 7.08 | Heart/Liver Counts/Gram ratio [1, 6]: 0.94 | Heart/Lung Counts/Gram ratio [1, 6]: 0.4 | Heart/Muscle Counts/Gram ratio [1, 6]: 3.98 | Kidney + Urine [1, 6]: 23.3 % injected dose/organ | Liver [1, 6]: 10.0 % injected dose/organ | Liver + GI [1, 6]: 48.6 % injected dose/organ | Lung [1, 6]: 1.01 % injected dose/organ | Muscle [1, 6]: 20.7 % injected dose/organ | Blood ([2]; 2 min): 7.15 % injected dose/organ | Heart ([2]; 2 min): 1.30 % injected dose/organ | Heart/Blood Counts/Gram ratio ([2]; 2 min): 2.78 | Heart/Liver Counts/Gram ratio ([2]; 2 min): 1.14 | Heart/Lung Counts/Gram ratio ([2]; 2 min): 0.5 | Heart/Muscle Counts/Gram ratio ([2]; 2 min): 5.01 | Kidney + Urine ([2]; 2 min): 9.33 % injected dose/organ | Liver ([2]; 2 min): 17.4 % injected dose/organ | Liver + GI ([2]; 2 min): 31.5 % injected dose/organ | Lung ([2]; 2 min): 3.57 % injected dose/organ | Muscle ([2]; 2 min): 29.1 % injected dose/organ | Blood ([2]; 60 min): 0.64 % injected dose/organ | Heart ([2]; 60 min): 0.99 % injected dose/organ | Heart/Blood Counts/Gram ratio ([2]; 60 min): 22.1 | Heart/Liver Counts/Gram ratio ([2]; 60 min): 1.64 | Heart/Lung Counts/Gram ratio ([2]; 60 min): 0.7 | Heart/Muscle Counts/Gram ratio ([2]; 60 min): 6.4 | Kidney + Urine ([2]; 60 min): 25.7 % injected dose/organ | Liver ([2]; 60 min): 8.81 % injected dose/organ | Liver + GI ([2]; 60 min): 43.3 % injected dose/organ | Lung ([2]; 60 min): 1.79 % injected dose/organ | Muscle ([2]; 60 min): 17.1 % injected dose/organ

Structure (SMILES): COC(CC(OC)P(C)C)P(C)C.COC(CC(OC)P(C)C)P(C)C.O=[N][99Tc+][Cl].[Cl-] (stereo not shown) [Example 17]
Blood [1, 6]: 1.31 % injected dose/organ | Heart [1, 6]: 0.70 % injected dose/organ | Heart/Blood Counts/Gram ratio [1, 6]: 13.9 | Heart/Liver Counts/Gram ratio [1, 6]: 4.21 | Heart/Lung Counts/Gram ratio [1, 6]: 1.3 | Heart/Muscle Counts/Gram ratio [1, 6]: 6.81 | Kidney + Urine [1, 6]: 17.6 % injected dose/organ | Liver [1, 6]: 2.76 % injected dose/organ | Liver + GI [1, 6]: 57.1 % injected dose/organ | Lung [1, 6]: 0.55 % injected dose/organ | Muscle [1, 6]: 1.60 % injected dose/organ | Blood ([2]; 60 min): 0.44 % injected dose/organ | Heart ([2]; 60 min): 1.23 % injected dose/organ | Heart/Blood Counts/Gram ratio ([2]; 60 min): 39.1 | Heart/Liver Counts/Gram ratio ([2]; 60 min): 2.47 | Heart/Lung Counts/Gram ratio ([2]; 60 min): 2.7 | Heart/Muscle Counts/Gram ratio ([2]; 60 min): 5.51 | Kidney + Urine ([2]; 60 min): 15.8 % injected dose/organ | Liver ([2]; 60 min): 6.03 % injected dose/organ | Liver + GI ([2]; 60 min): 47.9 % injected dose/organ | Lung ([2]; 60 min): 0.72 % injected dose/organ | Muscle ([2]; 60 min): 22.9 % injected dose/organ

Structure (SMILES): COCC(COC)(CP(C)C)CP(C)C.COCC(COC)(CP(C)C)CP(C)C.COCC(COC)(CP(C)C)CP(C)C.[99Tc+] [Example 18]
Blood [1, 7]: 5.14 % injected dose/organ | Heart [1, 7]: 1.2 % injected dose/organ | Heart/Blood Counts/Gram ratio [1, 7]: 5.7 | Heart/Liver Counts/Gram ratio [1, 7]: 1.12 | Heart/Lung Counts/Gram ratio [1, 7]: 0.6 | Heart/Muscle Counts/Gram ratio [1, 7]: 6.5 | Kidney + Urine [1, 7]: 14.5 % injected dose/organ | Liver [1, 7]: 17.3 % injected dose/organ | Liver + GI [1, 7]: 36.9 % injected dose/organ | Lung [1, 7]: 1.65 % injected dose/organ | Muscle [1, 7]: 27.4 % injected dose/organ | Blood [1, 6]: 0.46 % injected dose/organ | Heart [1, 6]: 1.06 % injected dose/organ | Heart/Blood Counts/Gram ratio [1, 6]: 56.1 | Heart/Liver Counts/Gram ratio [1, 6]: 5.63 | Heart/Lung Counts/Gram ratio [1, 6]: 1.9 | Heart/Muscle Counts/Gram ratio [1, 6]: 6.14 | Kidney + Urine [1, 6]: 15.0 % injected dose/organ | Liver [1, 6]: 2.6 % injected dose/organ | Liver + GI [1, 6]: 53.3 % injected dose/organ | Lung [1, 6]: 0.56 % injected dose/organ | Muscle [1, 6]: 23.7 % injected dose/organ | Blood ([2]; 2 min): 2.85 injected dose/organ | Heart ([2]; 2 min): 1.87 injected dose/organ | Heart/Blood Counts/Gram ratio ([2]; 2 min): 10.4 | Heart/Liver Counts/Gram ratio ([2]; 2 min): 1.68 | Heart/Lung Counts/Gram ratio ([2]; 2 min): 1.2 | Heart/Muscle Counts/Gram ratio ([2]; 2 min): 8.45 | Kidney + Urine ([2]; 2 min): 10.6 injected dose/organ | Liver ([2]; 2 min): 16.3 injected dose/organ | Liver + GI ([2]; 2 min): 36.4 injected dose/organ | Lung ([2]; 2 min): 2.59 injected dose/organ | Muscle ([2]; 2 min): 26.3 injected dose/organ | Blood ([2]; 60 min): 0.14 injected dose/organ | Heart ([2]; 60 min): 1.41 injected dose/organ | Heart/Blood Counts/Gram ratio ([2]; 60 min): 152 | Heart/Liver Counts/Gram ratio ([2]; 60 min): 8.42 | Heart/Lung Counts/Gram ratio ([2]; 60 min): 3.2 | Heart/Muscle Counts/Gram ratio ([2]; 60 min): 8.36 | Kidney + Urine ([2]; 60 min): 12.2 injected dose/organ | Liver ([2]; 60 min): 2.45 injected dose/organ | Liver + GI ([2]; 60 min): 49.92 injected dose/organ | Lung ([2]; 60 min): 0.75 injected dose/organ | Muscle ([2]; 60 min): 19.4 injected dose/organ

Structure (SMILES): COC(CC(OC)P(C)C)P(C)C (stereo not shown) [PL30]
HEART/BLOOD ([2]; 2 min): 2.78 | HEART/LIVER ([2]; 2 min): 5.01 | Heart ([2]; 2 min): 1.30

Structure (SMILES): CCOCCOCCOC(CP(C)C)CP(C)C [PL41]
HEART/BLOOD ([2]; 2 min): 7.83 | HEART/LIVER ([2]; 2 min): 0.83 | Heart ([2]; 2 min): 1.08 | HEART/BLOOD ([2]; 60 min): 122 | HEART/LIVER ([2]; 60 min): 4.65 | Heart ([2]; 60 min): 1.02

Results, then the molecule that gave them:

HEART/BLOOD ([2]; 2 min): 4.07 | HEART/LIVER ([2]; 2 min): 0.46 | Heart ([2]; 2 min): 0.88 | HEART/BLOOD ([2]; 60 min): 35.3 | HEART/LIVER ([2]; 60 min): 1.65 | Heart ([2]; 60 min): 0.55
Structure (SMILES): CP(C)CC1(CP(C)C)COC(C)(C)OC1 [PL35]

HEART/BLOOD ([2]; 2 min): 14.0 | HEART/LIVER ([2]; 2 min): 1.82 | Heart ([2]; 2 min): 1.87 | HEART/BLOOD ([2]; 60 min): 345 | HEART/LIVER ([2]; 60 min): 17.1 | Heart ([2]; 60 min): 1.77
Structure (SMILES): COCCOCC(COC)(CP(C)C)CP(C)C [PL46]

HEART/BLOOD ([2]; 2 min): 1.13 | HEART/LIVER ([2]; 2 min): 0.11 | Heart ([2]; 2 min): 0.32 | HEART/BLOOD ([2]; 60 min): 131 | HEART/LIVER ([2]; 60 min): 0.24 | Heart ([2]; 60 min): 0.18
Structure (SMILES): CP(C)CC1(CP(C)C)CCOCC1 [PL49]

Reference: patent US4916214A, “Cationic complexes of technetium-99m” (Amersham International plc., priority 1987, dated 1990)
